The text below walks through data of patent US20250127801A1, “BRIDGED TRICYCLIC CARBAMOYLPYRIDONE COMPOUNDS AND USES THEREOF” (priority 2023, published 2025).

In brackets after ≈: the same amount, converted by molar mass. Read-outs that look alike come from different tables or passages of the source.

One data set in a line: in vivo. To be noted: male, beagle, dog, po, 175 mg.
In a further data set the test system is HIV-1 (IIIB). In words: microbe, parasite or virus in culture. Format: cell-based.
A short description of a further data set: in vitro. To be noted: human.
The nature of the next data set: physchem. To be noted: 23 °C, thermodynamic from solid.

As to `CC1=NO[C@@]2(CC[C@H](C)N3C[C@H]2n2cc(C(=O)NCc4ccc(F)cc4F)c(=O)c(O)c2C3=O)C1` [Intermediate B, (3′S,5S,7′R)—N-(2,4-difluorobenzyl)-12′-hydroxy-3,3′-dimethyl-1′,11′-dioxo-1′,4′,5′,11′-tetrahydro-3′H,4H,7′H-spiro[isoxazole-5,6′-[2,7]methanopyrido[1,2-a][1,4]diazonine]-10′-carboxamide], the bioavailability (as a rule, the share of a dose that reaches the circulation, judged against a reference dose that is usually intravenous) in “in vivo” is 15.6%.

`COC1=NO[C@@]2(CC[C@H](C)N3C[C@H]2n2cc(C(=O)NCc4ccc(F)cc4F)c(=O)c(O)c2C3=O)C1` [Intermediate C, (3′S,5S,7′R)—N-(2,4-difluorobenzyl)-12′-hydroxy-3-methoxy-3′-methyl-1′,11′-dioxo-1′,4′,5′,11′-tetrahydro-3′H,4H,7′H-spiro[isoxazole-5,6′-[2,7]methanopyrido[1,2-a][1,4]diazonine]-10′-carboxamide] registered a bioavailability in the data set “in vivo” of 14.5%.

As for `CC1=NO[C@@]2(CC[C@H](C)N3C[C@H]2n2cc(C(=O)NCc4ccc(F)cc4F)c(=O)c(OCOC(=O)OC[C@@H]4C[C@@H]4COP(=O)(O)O)c2C3=O)C1` [Compound 49, (((3′S,5S,7′R)-10′-((2,4-difluorobenzyl)carbamoyl)-3,3′-dimethyl-1′,11′-dioxo-1′,4′,5′,11′-tetrahydro-3′H,4H,7′H-spiro[isoxazole-5,6′-[2,7]methanopyrido[1,2-a][1,4]diazonin]-12′-yl)oxy)methyl (((1R,2S)-2-((phosphonooxy)methyl)cyclopropyl)methyl) carbonate], the EC50 (usually the midpoint of the concentration-response curve) with HIV-1 (IIIB) (Human immunodeficiency virus 1, MT4, 120 h, HIV-1 (IIIB) replication in MT-4 cells, 5 days incubation, Cell Titer Glo, read-out: MT4 EC50) was 4.17 nM. The compound further showed a CC50 at 5 days in the data set “in vitro” (uninfected MT-4 cells) of 23.3 µM. Besides, the solubility (thermodynamic) (commonly the concentration in solution at equilibrium with solid) at 24 h in “physchem” (FaSSIF) is 4890 µg/mL (≈ 6.75 mM).

On to `CC1=NO[C@@]2(CC[C@H](C)N3C[C@H]2n2cc(C(=O)NCc4ccc(F)cc4F)c(=O)c(OCOC(=O)N(C)c4ncccc4CN(C)C(=O)OCOP(=O)(O)O)c2C3=O)C1` [Compound 62, (phosphonooxy)methyl ((2-((((((3′S,5S,7′R)-10′-((2,4-difluorobenzyl)carbamoyl)-3,3′-dimethyl-1′,11′-dioxo-1′,4′,5′,11′-tetrahydro-3′H,4H,7′H-spiro[isoxazole-5,6′-[2,7]methanopyrido[1,2-a][1,4]diazonin]-12′-yl)oxy)methoxy)carbonyl)(methyl)amino)pyridin-3-yl)methyl)(methyl)carbamate], for which the EC50 in the data set with HIV-1 (IIIB) (Human immunodeficiency virus 1, IIIB, MT4, 120 h, read-out: MT4 EC50 (nM)) came to 1.73 nM. The compound further showed a CC50 in “in vitro” of 14.6 µM. The compound also returned a solubility (thermodynamic) in the data set “physchem” (fassif) of 5030 µg/mL (≈ 5.93 mM).
